Results: patent publication US10287234B2, “Triglyceride and use thereof” (NITTO PHARMACEUTICAL INDUSTRIES, LTD., priority 2015, dated 2019)

Assay: State (liquid or solid) at standard temperature by visual observation
Format: physicochemical
Method: Whether compounds (I) of the present invention of Examples 1-3, trilinolein of Comparative Example 1 and HYA of Comparative Example 2 are liquid or solid at standard temperature (about 20° C.) was confirmed by visual observation.

| Molecule | State at standard temperature (about 20° C.) |
| --- | --- |
| CCCCC/C=C\CC(O)CCCCCCCCC(=O)O (stereo not drawn) [compound 2, 10-Hydroxy-cis-12-octadecenoic Acid, reference compound] | solid |
| Tri(10-hydroxy-cis-12-octadecenoyl)glycerol [Ex. 3] | liquid |
| CCCCC/C=C\C/C=C\CCCCCCCC(=O)OCC(COC(=O)CCCCCCC/C=C\C/C=C\CCCCC)OC(=O)CCCCCCC/C=C\C/C=C\CCCCC [compound 1, Trilinolein, reference compound] | liquid |
| CCCCC/C=C\C/C=C\CCCCCCCC(=O)OC(COC(=O)CCCCCCCCC(O)C/C=C\CCCCC)COC(=O)CCCCCCCCC(O)C/C=C\CCCCC (stereo not drawn) [Ex. 2, Di(10-hydroxy-cis-12-octadecenoyl)(cis, cis-9,12-octadecadienoyl)glycerol] | liquid |
| CCCCC/C=C\C/C=C\CCCCCCCC(=O)OCC(COC(=O)CCCCCCCCC(O)C/C=C\CCCCC)OC(=O)CCCCCCC/C=C\C/C=C\CCCCC (stereo not drawn) [Ex. 1, Di(cis, cis-9,12-octadecadienoyl)(10-hydroxy-cis-12-octadecenoyl)glycerol] | liquid |
